Test [1] has as its system Aphidius ervi. The experiment in a line: Behavioral assay in two-way olfactometer, bean plants (Vicia faba) treated by soil application. Type of test: in vivo. As to conditions: 10 min, Vicia faba 3-4 weeks, versus clean plant. As to the method:
Broad bean seeds (Vicia faba cv Aguadulce supersimonia) were planted individually in plastic pots (6×6×9 cm) filled with Traysubstrat topsoil (Klasmann-Deilmann GmbH) or a mixture of agriperlite, vermiculite, and sand (1:1:1) and grown in an environmental chamber (24±2° C., 45±10% RH, 14 h: 8 h L: D).
For this example, bean plants of 3-4 weeks were used. Plants were treated by soil application of the two isomers of DOPA: 3,4-dihydroxy-L-phenylalanine (Alfa Aesar, CAS Number 59-92-7) and 3,4-dihydroxy-D-phenylalanine (Sigma Aldrich, CAS Number 5796-17-8).
Untreated plants were also used as control.
The attractiveness of beneficial insects, specifically Aphidius ervi, towards a bean plants treated with the isomers of DOPA compared to clean bean plant (control) was evaluated in an olfactometer.
The behavioral response of A. ervi were evaluated over 10 min in a two-way olfactometer. Only active insects, i.e. insects that spent at least 60 s in the treatment (trt) and/or control (cnt) arm of the olfactometer were taken into account.
The results obtained in this example are expressed as a percentage of residence time in each olfactometer arm where the parasitoid remained, relative to the total time spent in the two arms. Paired t-tests were conducted using R (free software environment for statistical computing and graphics).

The subject of test [2] is bean plants (Vicia faba). The experiment in a line: VOC induction assay on bean plants (Vicia faba) in soil/vermiculite. The conditions noted are these: 10 μg in 30 mL, 24 h, 6-methyl-5-hepten-2one, cis-3-hexen-1-ol, cis-3-hexenyl acetate, ocimene. Type of test: in vivo. As to the method:
Broad beans (Vicia faba cv Histal) plants were grown in a mixture of sterile soil/vermiculite (7:3) for 10 days, and treated with L-DOPA (10 μg), D-DOPA (10 μg) or HPLC water (control, 10 μl) dissolved in 30 mL of distilled water.
(§1) After 24 h, the volatile organic compounds (VOCs) emitted from the plant were collected through a dynamic headspace.
(§2) The bean plants were enclosed in a glass vessel with a volume of 3.2 I. The bottom of the vessel was enclosed around the top of the pot. Air that had been purified by passage through an activated charcoal filter (BDH, 10-14 mesh) was pushed into (750 ml·min^−1) and pulled (700 ml·min^−1) out of the vessel. VOCs were trapped onto Porapack™ (Porous Polymer Adsorbent) 50/80 mesh (50 mg; Supelco, Bellefonte, USA) held in glass tubing (5 mm outer diameter) by two plugs of silanised glass wool. The Porapack™ tube was conditioned by washing with redistilled diethyl ether (2 ml) and heating at 130° C. for 4 h under a stream of purified nitrogen. […]
(§3) For the analysis, four samples (1 μL) from each treatment (L-DOPA, D-DOPA and Control) were analyzed on an Agilent 7820A Gas Chromatograph (Agilent Technologies, Santa Clara, California, USA), equipped with a cool column injector, flame ionization detector (FID), and a HP-1 capillary GC column (50 m×0.32 mm internal diameter×0.52 μm film thickness). […]

Test [3] has as its system bean plants (Vicia faba). The test can be described thus: VOC induction assay on bean plants (Vicia faba) in hydroponic medium. The conditions noted are these: 10 μg. The format is in vivo. On the procedure: Broad beans (Vicia faba cv Histal) were potted in sterile vermiculite and kept in a glasshouse at 23° C. After 7 days, the seedlings were gently removed from the vermiculite, the cotyledons peeled and the roots rinsed with bidistilled water, carefully brushing away all soil particles. They were then placed in glass beakers containing a hydroponic solution made with Hoagland's modified basalt salt mixture, (MP, USA), and maintained in an environmental chamber at 23° C. Each beaker, containing three seedlings, was wrapped in aluminum foil to hold the plants in position and to prevent the light from reaching the roots. Every 4 days, the hydroponic solution in each beaker was renewed. After 10 days plants were treated with L-DOPA (10 μg), D-DOPA (10 μg) or HPLC water (control, 10 μl) dissolved in 30 mL of distilled water.
(§4) The bean plants were enclosed in a glass vessel with a volume of 3.2 I. The bottom of the vessel was enclosed around the top of the pot. Air that had been purified by passage through an activated charcoal filter (BDH, 10-14 mesh) was pushed into (750 ml·min^−1) and pulled (700 ml·min^−1) out of the vessel. VOCs were trapped onto Porapack™ (Porous Polymer Adsorbent) 50/80 mesh (50 mg; Supelco, Bellefonte, USA) held in glass tubing (5 mm outer diameter) by two plugs of silanised glass wool. The Porapack™ tube was conditioned by washing with redistilled diethyl ether (2 ml) and heating at 130° C. for 4 h under a stream of purified nitrogen.
(§5) VOCs collected on the Porapak™ were eluted with 750 μL of redistilled diethyl ether and the samples were stored at −20° C. until analysis.
(§6) For the analysis, four samples (1 μL) from each treatment (L-DOPA, D-DOPA and Control) were analyzed on an Agilent 7820A Gas Chromatograph (Agilent Technologies, Santa Clara, California, USA), equipped with a cool column injector, flame ionization detector (FID), and a HP-1 capillary GC column (50 m×0.32 mm internal diameter×0.52 μm film thickness). Hydrogen was the carrier gas. The oven temperature was maintained at 30° C. for 0.1 min, then programmed to increase at 10° C.·min^−1 until 250° C., and then held for 38 min. Tentative identifications were made by Kovats' Index values and GC peak enhancement on GC columns of HP-1, using authentic samples of chemicals compounds.

Test [4] has as its system bean plants (Phaseolus vulgaris). The test can be described thus: VOC induction assay on bean plants (Phaseolus vulgaris) in hydroponic medium. As to conditions: 10 μg, 24 h. The format is in vivo. On the procedure: Beans (Phaseolus vulgaris cv CGB0002) were sown in sterile vermiculite and kept in a glasshouse at 27° C. After 17 days, the seedlings were gently removed from the vermiculite. They were then placed in glass beakers containing 150 mL of hydroponic solution made with Hoagland's modified basalt salt mixture, (MP, USA), and maintained in an environmental chamber at 27° C. Each beaker, containing one seedling, was wrapped in aluminum foil to hold the plants in position and to prevent the light from reaching the roots. After 2 days plants were treated with L-DOPA (10 μg), D-DOPA (10 μg) or HPLC water (control, 10 μl).
as §1, §4, §5, §6

Test [5] relates to bean plant (Vicia faba) leaves. The test can be described thus: Estimation of total phenolic content in bean plant (Vicia faba) leaves, Folin-Ciocalteu assay. The format is in vivo. The conditions noted are these: soil/vermiculite, 10 μg in 30 mL, 24 h. On the procedure:
The estimation of total phenolic content in bean plant leaves (Vicia faba) was based on the procedure developed by Ainsworth, E.A. et al. (2007) using Folin-Ciocalteu (F-C) reagent. F-C assay is commonly been used to assay total phenolic content. The F-C assay provides a convenient, rapid, and simple estimation of the content of total phenolics, and other oxidation substrates in plant extracts.
Broad bean (Vicia faba cv Histal) plants were grown in a mixture of sterile soil/vermiculite (7:3) for 10 days, and treated with L-DOPA (10 μg), D-DOPA (10 μg) or HPLC water (control, 10 μl) dissolved in 30 mL of distilled water. After 24 h harvest leaves material (approximately 20 mg) in screw-capped tubes and freeze immediately in liquid nitrogen.
To homogenize the tissue, three tungsten carbide beads and 2 ml of ice-cold 95% (vol/vol) methanol were added in each sample tube and insert samples into pre-cooled Teflon adaptors. Tissue was homogenized for 5 min at 30 Hz. […]
Finally, a […] sample, standard or blank from the assay tube were transferred to a clear 96-well micro-plate and the absorbance of each was measured at 750 nm using a spectrophotometer.
For calculate the total phenolic content, first a standard curve from the blank-corrected A750 of the gallic acid standards was calculated. […]

Test [6] concerns bean plants (Phaseolus vulgaris). The test can be described thus: VOC induction assay on bean plants (Phaseolus vulgaris) in soil. Type of test: in vivo. The conditions noted are these: 10 μg in 30 mL, 24 h, cis-3-hexenyl acetate and ocimene. As to the method: Bean (Phaseolus vulgaris cv CGB0002) plants were grown in sterile soil for 5 days, and treated with L-DOPA (10 μg), D-DOPA (10 μg) or HPLC water (control, 10 μl) dissolved in 30 mL of distilled water.
as §1, §2, §3

The test system of test [7] is wheat plants (Triticum monococcum). The experiment in a line: VOC induction assay on wheat plants (Triticum monococcum) in soil. As to conditions: 10 μg in 30 mL, 24 h. Type of test: in vivo. On the procedure:
Wheat (Triticum monococcum VAR Tocayo) plants were grown in sterile soil for 15 days (20 seeds per pot), and treated with L-DOPA (10 μg), D-DOPA (10 μg) or HPLC water (control, 10 μl) dissolved in 30 mL of distilled water.
as §1
as §2, with “wheat” for “bean”
as §3

For test [8], the system named is many plants. As to conditions: allelochemical effect, Nishihara et al (2004); cited from earlier work.

Results on two compounds are retold here after patent US20240423204A1, “METHOD AND USE OF AN ENANTIOMER OF 3,4-DIHYDROXYPHENYLALANINE (DOPA) FOR ENHANCING PLANT ATTRACTIVENESS TO BENEFICIAL INSECTS” (BIOBAB R&D, S.L., priority 2021, published 2024).

In the case of `N[C@H](Cc1ccc(O)c(O)c1)C(=O)O` [D-DOPA, D-3,4-dihydroxyphenylalanine], the “residence time of A. ervi females on treated bean plants, higher than for untreated plants” value in test [1] was “approx. +20%”. For the same compound, the “concentration of VOCs (FID response) emitted by the plant versus control” value in test [2] was “A change is observed”. Also, in test [3], the “concentration of 6-methyl-5-hepten-2one versus control” value is “A change is observed”, the “concentration of cis-3-hexenyl acetate versus control” value was “A change is observed” and the “concentration of ocimene versus control” value is on record as “A change is observed”. Besides, in test [4], the “concentration of cis-3-hexen-1-ol versus control” value is reported as “A change is observed” and the “concentration of ocimene versus control” value is “A change is observed”. The “total phenolic content versus untreated plants (control)” value in test [5] is listed as “higher”.

As for `N[C@@H](Cc1ccc(O)c(O)c1)C(=O)O` [L-DOPA, L-3,4-dihydroxyphenylalanine], in test [1], the “residence time of A. ervi females on treated bean plants, higher than for untreated plants” value is “approx. +20%”. In test [2], the “concentration of VOCs (FID response) emitted by the plant versus control” value was “A change is observed”. For the same compound, in test [3], the “concentration of 6-methyl-5-hepten-2one versus control” value is reported as “A change is observed”, the “concentration of cis-3-hexenyl acetate versus control” value is recorded as “A change is observed” and the “concentration of ocimene versus control” value was “A change is observed”. For the same compound, the “concentration of VOCs (FID response) versus control” value in test [6] is “A change is observed”. In test [4], the “concentration of 6-methyl-5-hepten-2one versus control” value is on record as “A change is observed”, the “concentration of cis-3-hexen-1-ol versus control” value is “A change is observed”, the “concentration of cis-3-hexenyl acetate versus control” value is on record as “A change is observed” and the “concentration of ocimene versus control” value is given as “A change is observed”. Besides, in test [7], the “concentration of ocimene versus control” value is “A change is observed”. In addition, the “total phenolic content versus untreated plants (control)” value in test [5] is reported as “higher”. Also, in test [8], the “growth of plants (especially radicle and hypocotyl)” value was “reduced the growth”.
